Data as given in patent US9035056B2, “Pyrido[4,3-b]indole and pyrido[3,4-b]indole derivatives and methods of use” (Medivation Technologies, Inc., priority 2011, dated 2015).

What was measured:
[1] = target: T1, human recombinant adrenergic α2A receptor (Homo sapiens, UniProt P08913); assay: Adrenergic α2A radioligand binding ([3H]MK-912); conditions: 0.1 μM compound; for inhibition at 0.1 µM: read-out: Percentage inhibition of ligand binding, Adrenergic α2A; for Percentage inhibition of ligand binding, Adrenergic α2A: 0.1 µM
T1 construct: expressed in transfected cells; host or cells: insect Sf9 cells
T1 sequence (P08913 1-465): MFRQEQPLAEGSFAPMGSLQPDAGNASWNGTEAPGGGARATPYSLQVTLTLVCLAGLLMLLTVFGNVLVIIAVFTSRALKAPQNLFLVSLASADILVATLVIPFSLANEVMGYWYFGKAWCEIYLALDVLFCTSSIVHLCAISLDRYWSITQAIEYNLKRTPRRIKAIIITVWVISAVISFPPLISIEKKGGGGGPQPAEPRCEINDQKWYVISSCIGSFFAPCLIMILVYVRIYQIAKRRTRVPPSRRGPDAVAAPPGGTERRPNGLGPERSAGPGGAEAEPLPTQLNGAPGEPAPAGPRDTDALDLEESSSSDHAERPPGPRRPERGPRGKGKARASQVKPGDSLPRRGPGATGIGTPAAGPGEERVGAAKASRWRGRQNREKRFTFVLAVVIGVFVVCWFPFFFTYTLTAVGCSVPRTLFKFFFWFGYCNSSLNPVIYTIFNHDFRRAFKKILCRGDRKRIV
Experimental: To evaluate in radioligand binding assays the activity of compounds of the invention, human recombinant adrenergic α2A receptor expressed in insect Sf9 cells (Uhlen, S. et al, J. Pharmacol. Exp. Ther. 271:1558, 1994) in a modified Tris-HCl buffer (50 mM Tris-HCl, pH 7.4, 12.5 mM MgCl2, 2 mM EDTA) was used. Compounds of invention were incubated with 1 nM [^3H]MK-912 for 60 min at 25° C. MK-912 is (2S-trans)-1,3,4,5′,6,6′,7,12b-octahydro-1′,3′-dimethyl-spiro[2H-benzofuro[2,3-a]quinolizine-2,4′(1′H)-pyrimidin]-2′(3′H)-one hydrochloride Non-specific binding was estimated in the presence of 10 μM WB-4101 (2-(2,6-Dimethoxyphenoxyethyl)aminomethyl-1,4-benzodioxane hydrochloride). Receptor proteins were filtered and washed, the filters were then counted to determine [^3H]MK-912 specifically bound. Compounds were screened at 1 μM or lower, using 1% DMSO as vehicle. Biochemical assay results are presented as the percent inhibition of specific binding in Table 3.

[2] = target: T2, rat adrenergic α1B receptor (Rattus norvegicus, UniProt P15823); assay: Adrenergic α1B radioligand binding ([3H]Prazosin); conditions: 0.1 μM compound; for Percentage inhibition of ligand binding, Adrenergic α1B: 0.1 µM; for inhibition at 0.1 µM: read-out: Percentage inhibition of ligand binding, Adrenergic α1B
T2 construct: rat adrenergic α1B receptor obtained from Wistar Rat liver; from tissue; host or cells: Wistar rat liver
T2 sequence (P15823 1-515): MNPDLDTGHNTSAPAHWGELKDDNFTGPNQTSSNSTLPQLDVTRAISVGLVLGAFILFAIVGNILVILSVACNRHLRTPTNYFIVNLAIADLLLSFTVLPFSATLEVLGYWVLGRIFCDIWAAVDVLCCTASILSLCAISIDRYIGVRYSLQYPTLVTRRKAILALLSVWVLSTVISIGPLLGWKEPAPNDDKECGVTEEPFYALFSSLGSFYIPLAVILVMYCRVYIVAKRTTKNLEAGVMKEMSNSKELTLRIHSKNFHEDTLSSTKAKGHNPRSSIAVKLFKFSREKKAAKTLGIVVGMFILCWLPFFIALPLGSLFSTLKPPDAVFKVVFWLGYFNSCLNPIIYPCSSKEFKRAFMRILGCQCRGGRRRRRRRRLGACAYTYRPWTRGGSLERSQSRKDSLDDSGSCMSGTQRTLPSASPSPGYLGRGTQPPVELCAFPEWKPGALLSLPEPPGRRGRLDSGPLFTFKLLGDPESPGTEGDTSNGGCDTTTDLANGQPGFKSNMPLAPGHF
Experimental: To evaluate in radioligand binding assays the activity of compounds of the invention, rat adrenergic α1B receptor obtained from Wistar Rat liver (Garcia-S'ainz, J. et al, Biochem. Biophys. Res. Commun. 186:760, 1992; Michel, A. et al, Br. J. Pharmacol. 98:883, 1989) in a modified Tris-HCl buffer (50 mM Tris-HCl buffer, pH 7.4, 0.5 mM EDTA) was used. Compounds of the invention were incubated with 0.25 nM [^3H]Prazosin for 60 min at 25° C. Non-specific binding was estimated in the presence of 10 μM phentolamine. Receptor proteins were filtered and washed, the filters were then counted to determine [^3H]Prazosin specifically bound. Compounds were screened at 1 μM or lower, using 1% DMSO as vehicle. Biochemical assay results are presented as the percent inhibition of specific binding in Table 3.

[3] = target: T3, human recombinant histamine H1 receptor (Homo sapiens, UniProt P35367); assay: Histamine H1 radioligand binding ([3H]Pyrilamine); conditions: 0.1 μM compound; for inhibition at 0.1 µM: read-out: Binding data (Percentage inhibition) Histamine H1 (0.1 μM)
T3 construct: expressed in transfected cells; host or cells: CHO-K1
T3 sequence (P35367 whole entry): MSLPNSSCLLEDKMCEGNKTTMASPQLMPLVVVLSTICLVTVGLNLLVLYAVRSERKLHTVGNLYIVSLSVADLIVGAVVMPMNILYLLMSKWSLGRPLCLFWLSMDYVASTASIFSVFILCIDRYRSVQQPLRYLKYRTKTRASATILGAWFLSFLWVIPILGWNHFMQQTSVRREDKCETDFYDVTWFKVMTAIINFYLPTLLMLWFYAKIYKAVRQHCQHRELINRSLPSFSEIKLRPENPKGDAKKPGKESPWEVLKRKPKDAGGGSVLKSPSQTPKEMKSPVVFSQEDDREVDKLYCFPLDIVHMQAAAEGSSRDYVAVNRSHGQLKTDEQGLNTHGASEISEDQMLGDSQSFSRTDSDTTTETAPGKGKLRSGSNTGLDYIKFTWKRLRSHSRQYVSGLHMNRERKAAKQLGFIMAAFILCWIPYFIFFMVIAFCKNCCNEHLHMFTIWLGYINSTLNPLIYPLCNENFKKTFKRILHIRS
Experimental: To evaluate in radioligand binding assays the activity of compounds of the invention, human recombinant histamine H1 receptor expressed in Chinese hamster ovary (CHO) K1 cells (De Backer, M. et al, Biochem. Biophys. Res. Comm. 197(3):1601, 1993) in a modified Tris-HCl buffer (50 mM Tris-HCl, pH 7.4, 2 mM MgCl2, 100 mM NaCl, 250 mM Sucrose) was used. Compounds of the invention were incubated with 1.2 nM [^3H]Pyrilamine for 180 min at 25° C. Non-specific binding was estimated in the presence of 1 μM Pyrilamine. Receptor proteins were filtered and washed, the filters were then counted to determine [^3H]Pyrilamine specifically bound. Compounds were screened at 1 μM or lower, using 1% DMSO as vehicle. Biochemical assay results are presented as the percent inhibition of specific binding in Table 3.

| Percentage inhibition of ligand binding, Adrenergic α1B [2] [%] | Binding data (Percentage inhibition) Histamine H1 (0.1 μM) [3] [%] | Percentage inhibition of ligand binding, Adrenergic α2A [1] [%] | SMILES | inhibition at 0.1 µM [1] [%] | inhibition at 0.1 µM [2] [%] | inhibition at 0.1 µM [3] [%] |
| --- | --- | --- | --- | --- | --- | --- |
| 12 | 1 | – | Cc1ccc2c(c1)c1c(n2CC2(O)CCCc3cnccc32)CCN(C)C1 (single isomer, unassigned) [ii-74a] | 14 | – | – |
| 5 | 13 | – | Cc1ccc2c(c1)c1c(n2CC2(O)CCCc3ccncc32)CCN(C)C1 (single isomer, unassigned) [ii-113a] | 9 | – | – |
| 83 | 11 | 12 | Cc1ccc2c(c1)c1c(n2CC2(O)CCCc3cnccc32)CCN(C)C1 (single isomer, unassigned) [ii-74b] | – | – | – |

Further lines, the molecule ahead of its results:

| SMILES | Percentage inhibition of ligand binding, Adrenergic α1B [2] [%] | Binding data (Percentage inhibition) Histamine H1 (0.1 μM) [3] [%] | Percentage inhibition of ligand binding, Adrenergic α2A [1] [%] | inhibition at 0.1 µM [1] [%] | inhibition at 0.1 µM [2] [%] | inhibition at 0.1 µM [3] [%] |
| --- | --- | --- | --- | --- | --- | --- |
| Cc1ccc2c(c1)c1c(n2/C=C2\CCCc3ccccc32)CCN(C)C1 [i-3] | – | – | – | 92 | 66 | 32 |
| Cc1ccc2c(c1)c1c(n2CC2(O)CCCc3ncccc32)CCN(C)C1 (single isomer, unassigned) [ii-112a] | 79 | 4 | 15 | – | – | – |
| Cc1ccc2c(c1)c1c(n2/C=C2/CCCc3ccccc32)CCN(C)C1 [i-2] | – | – | – | 98 | 85 | 28 |
| Cc1ccc2c(c1)c1c(n2CC2(O)CCCc3ncccc32)CCN(C)C1 (single isomer, unassigned) [ii-112b] | 14 | 13 | 4 | – | – | – |
